According to patent publication US11377442B2, “Small molecule agonists and antagonists of NR2F6 activity” (ZANDER THERAPEUTICS, INC., priority 2016, dated 2022):

Target: T1, NR2F6 (Homo sapiens, UniProt P10588)
T1 construct: expressed in transfected cells; also transient transfection
T1 sequence (P10588 1-404): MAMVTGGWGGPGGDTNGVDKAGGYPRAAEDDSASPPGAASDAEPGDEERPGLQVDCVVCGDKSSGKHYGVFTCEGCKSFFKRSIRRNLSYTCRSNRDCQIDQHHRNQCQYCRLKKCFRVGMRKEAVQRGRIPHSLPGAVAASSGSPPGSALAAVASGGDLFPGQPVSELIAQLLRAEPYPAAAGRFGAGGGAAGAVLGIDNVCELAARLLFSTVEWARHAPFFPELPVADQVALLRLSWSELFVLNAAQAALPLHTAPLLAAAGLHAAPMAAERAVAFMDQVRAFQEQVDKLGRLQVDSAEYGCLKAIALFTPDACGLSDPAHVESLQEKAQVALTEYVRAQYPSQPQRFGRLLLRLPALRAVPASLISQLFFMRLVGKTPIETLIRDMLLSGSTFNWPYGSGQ
Experiment: NR2F6 agonist screening, Firefly signal cmpd/DMSO
Type: cell-based
Details: for Firefly/Renilla (NR2F6 stable, clone F4): ratio Firefly/Renilla; for Firefly, NR2F6 stable (clone F4)/pGL4: ratio of Firefly in NR2F6 stable clone F4 to pGL4

[1] = C11 analogs follow set (Tables 2-10)

| Firefly, cmpd/DMSO repeat 1 [1] | Firefly, cmpd/DMSO repeat 2 [1] | Structure (SMILES) | further results |
| --- | --- | --- | --- |
| 38.1 | 31.9 | Cc1ccc(S(=O)(=O)c2cc3cc(C(=O)Nc4cccc(C)c4C)ccc3oc2=O)cc1 [Compound C134] | Firefly/Renilla (NR2F6 stable, clone F4) (Table 12): 1.8; Firefly, NR2F6 stable (clone F4)/pGL4 (Table 12): 7.7; Firefly, cmpd/DMSO repeat 1 (Table 12): 38.1; Firefly, cmpd/DMSO repeat 2 (Table 12): 31.9 |
| 5.6 | 4.9 | Cc1cccc(NC(=O)c2ccc3oc(=O)c(S(=O)(=O)c4ccc(F)cc4)cc3c2)c1C [Compound C135] |  |
| 22.1 | 25.8 | Cc1cccc(NC(=O)c2ccc3oc(=O)c(S(=O)(=O)c4ccc(Cl)cc4)cc3c2)c1C [Compound C136] | Firefly/Renilla (NR2F6 stable, clone F4) (Table 12): 1.7; Firefly, NR2F6 stable (clone F4)/pGL4 (Table 12): 8.1; Firefly, cmpd/DMSO repeat 1 (Table 12): 22.1; Firefly, cmpd/DMSO repeat 2 (Table 12): 25.8 |
| 22.6 | 23.4 | O=c1oc2ccc([N+](=O)[O-])cc2cc1S(=O)(=O)c1ccc(F)cc1 [Compound C137] | Firefly/Renilla (NR2F6 stable, clone F4) (Table 13): 1.4; Firefly, NR2F6 stable (clone F4)/pGL4 (Table 13): 8.4; Firefly, cmpd/DMSO repeat 1 (Table 13): 22.6; Firefly, cmpd/DMSO repeat 2 (Table 13): 23.4 |
| 10.0 | 16.6 | O=c1oc2ccc([N+](=O)[O-])cc2cc1S(=O)(=O)c1ccc(Br)cc1 [Compound C138] |  |
| 6.6 | 6.4 | CC(C)(C)c1ccc(S(=O)(=O)c2cc3cc([N+](=O)[O-])ccc3oc2=O)cc1 [Compound C139] |  |
| 12.8 | 12.0 | CC(C)c1ccc(S(=O)(=O)c2cc3cc(Cl)ccc3oc2=O)cc1 [Compound C140] |  |
| 15.2 | 14.5 | Cc1ccc(S(=O)(=O)c2cc3cc(Cl)ccc3oc2=O)cc1C [Compound C143] |  |
| 0.9 | 0.8 | COc1ccc2oc(=O)c(S(=O)(=O)c3ccc(C)c(C)c3)cc2c1 [Compound C144] |  |
| 2.6 | 2.9 | O=c1oc2ccc(Cl)cc2cc1S(=O)(=O)c1ccc(Cl)cc1 [Compound C147] |  |
| 3.6 | 5.5 | O=c1oc2ccc(Cl)cc2cc1S(=O)(=O)c1ccc(Cl)c(Cl)c1 [Compound C151] |  |
| 6.5 | 9.0 | O=c1oc2ccc([N+](=O)[O-])cc2cc1S(=O)(=O)c1ccc(Cl)c(Cl)c1 [Compound C153] |  |
| 35.4 | 35.4 | COc1ccc(S(=O)(=O)c2cc3cc(Br)ccc3oc2=O)cc1OC [Compound C154] | Firefly/Renilla (NR2F6 stable, clone F4) (Table 13): 1.6; Firefly, NR2F6 stable (clone F4)/pGL4 (Table 13): 9.1; Firefly, cmpd/DMSO repeat 1 (Table 13): 35.4; Firefly, cmpd/DMSO repeat 2 (Table 13): 35.4 |
| 37.3 | 33.3 | COc1ccc(S(=O)(=O)c2cc3cc(Cl)ccc3oc2=O)cc1OC [Compound C155] | Firefly/Renilla (NR2F6 stable, clone F4) (Table 12): 2.0; Firefly, NR2F6 stable (clone F4)/pGL4 (Table 12): 10.9; Firefly, cmpd/DMSO repeat 1 (Table 12): 37.3; Firefly, cmpd/DMSO repeat 2 (Table 12): 33.3 |
| 1.0 | 1.0 | COc1ccc2oc(=O)c(S(=O)(=O)c3ccc(OC)c(OC)c3)cc2c1 [Compound C156] |  |
| 1.5 | 1.2 | COc1ccc2oc(=O)c(S(=O)(=O)c3ccc(F)c(Cl)c3)cc2c1 [Compound C158] |  |
| 0.9 | 1.2 | O=C(Nc1ccc(F)cc1)c1ccc2oc(=O)c(S(=O)(=O)c3ccc(F)cc3)cc2c1 [Compound C159] |  |
| 22.9 | 20.2 | Cc1ccccc1NC(=O)c1ccc2oc(=O)c(S(=O)(=O)c3ccc(F)cc3)cc2c1 [Compound C160] | Firefly/Renilla (NR2F6 stable, clone F4) (Table 12): 2.4; Firefly, NR2F6 stable (clone F4)/pGL4 (Table 12): 7.2; Firefly, cmpd/DMSO repeat 1 (Table 12): 22.9; Firefly, cmpd/DMSO repeat 2 (Table 12): 20.2 |
| 35.4 | 39.0 | Cc1ccc(NC(=O)c2ccc3oc(=O)c(S(=O)(=O)c4ccccc4)cc3c2)cc1 [Compound C161] | Firefly/Renilla (NR2F6 stable, clone F4) (Table 13): 1.3; Firefly, NR2F6 stable (clone F4)/pGL4 (Table 13): 8.1; Firefly, cmpd/DMSO repeat 1 (Table 13): 35.4; Firefly, cmpd/DMSO repeat 2 (Table 13): 39.0 |
| 20.9 | 20.6 | Cc1ccc(NC(=O)c2ccc3oc(=O)c(S(=O)(=O)c4ccc(C)cc4)cc3c2)cc1 [Compound C162] |  |
| 2.0 | 5.2 | Cc1ccc(NC(=O)c2ccc3oc(=O)c(S(=O)(=O)c4ccc(F)cc4)cc3c2)cc1 [Compound C163] |  |

| Firefly, cmpd/DMSO repeat 1 [1] | Firefly, cmpd/DMSO repeat 2 [1] | Structure (SMILES) | further results |
| --- | --- | --- | --- |
| 29.3 | 19.6 | Cc1ccc(NC(=O)c2ccc3oc(=O)c(S(=O)(=O)c4ccccc4)cc3c2)c(C)c1 [Compound C164] | Firefly/Renilla (NR2F6 stable, clone F4) (Table 12): 2.1; Firefly, NR2F6 stable (clone F4)/pGL4 (Table 12): 8.2; Firefly, cmpd/DMSO repeat 1 (Table 12): 29.3; Firefly, cmpd/DMSO repeat 2 (Table 12): 19.6 |
| 3.4 | 4.2 | Cc1ccc(NC(=O)c2ccc3oc(=O)c(S(=O)(=O)c4ccc(Cl)cc4)cc3c2)c(C)c1 [Compound C166] |  |
| 1.0 | 0.7 | Cc1ccc(NC(=O)c2ccc3oc(=O)c(S(=O)(=O)c4ccccc4)cc3c2)cc1C [Compound C167] |  |
| 11.8 | 11.4 | Cc1ccc(S(=O)(=O)c2cc3cc(C(=O)Nc4ccc(C)c(C)c4)ccc3oc2=O)cc1 [Compound C168] |  |
| 8.8 | 10.6 | Cc1ccc(NC(=O)c2ccc3oc(=O)c(S(=O)(=O)c4ccc(F)cc4)cc3c2)cc1C [Compound C169] |  |
| 1.7 | 1.6 | Cc1ccc(NC(=O)c2ccc3oc(=O)c(S(=O)(=O)c4ccc(Cl)cc4)cc3c2)cc1C [Compound C170] |  |
| 6.4 | 4.2 | Cc1ccc(S(=O)(=O)c2cc3cc(C(=O)Nc4cccc(C)c4)ccc3oc2=O)cc1 [Compound C171] |  |
| 9.8 | 6.9 | Cc1cccc(NC(=O)c2ccc3oc(=O)c(S(=O)(=O)c4ccc(Cl)cc4)cc3c2)c1 [Compound C173] |  |
| 5.8 | 14.3 | Cc1cc(C)cc(NC(=O)c2ccc3oc(=O)c(S(=O)(=O)c4ccccc4)cc3c2)c1 [Compound C174] |  |
| 13.2 | 11.9 | Cc1ccc(S(=O)(=O)c2cc3cc(C(=O)Nc4cc(C)cc(C)c4)ccc3oc2=O)cc1 [Compound C175] | Firefly/Renilla (NR2F6 stable, clone F4) (Table 13): 1.1; Firefly, NR2F6 stable (clone F4)/pGL4 (Table 13): 5.7; Firefly, cmpd/DMSO repeat 1 (Table 13): 13.2; Firefly, cmpd/DMSO repeat 2 (Table 13): 11.9 |
| 3.7 | 9.6 | Cc1cc(C)cc(NC(=O)c2ccc3oc(=O)c(S(=O)(=O)c4ccc(F)cc4)cc3c2)c1 [Compound C176] |  |
| 17.4 | 8.2 | COc1ccc(NC(=O)c2ccc3oc(=O)c(S(=O)(=O)c4ccccc4)cc3c2)cc1 [Compound C177] | Firefly/Renilla (NR2F6 stable, clone F4) (Table 12): 2.3; Firefly, NR2F6 stable (clone F4)/pGL4 (Table 12): 8.5; Firefly, cmpd/DMSO repeat 1 (Table 12): 17.4; Firefly, cmpd/DMSO repeat 2 (Table 12): 8.2 |
| 15.2 | 16.9 | COc1ccc(NC(=O)c2ccc3oc(=O)c(S(=O)(=O)c4ccc(C)cc4)cc3c2)cc1 [Compound C178] |  |
| 8.7 | 10.1 | COc1ccc(NC(=O)c2ccc3oc(=O)c(S(=O)(=O)c4ccc(F)cc4)cc3c2)cc1 [Compound C179] |  |
| 34.0 | 34.5 | COc1ccc(NC(=O)c2ccc3oc(=O)c(S(=O)(=O)c4ccc(Cl)cc4)cc3c2)cc1 [Compound C180] | Firefly/Renilla (NR2F6 stable, clone F4) (Table 13): 1.1; Firefly, NR2F6 stable (clone F4)/pGL4 (Table 13): 13.1; Firefly, cmpd/DMSO repeat 1 (Table 13): 34.0; Firefly, cmpd/DMSO repeat 2 (Table 13): 34.5 |
| 10.4 | 13.5 | CCOc1ccccc1NC(=O)c1ccc2oc(=O)c(S(=O)(=O)c3ccc(F)cc3)cc2c1 [Compound C181] |  |
| 16.2 | 17.3 | O=c1oc2ccc(Cl)cc2cc1S(=O)(=O)c1cccc(F)c1 [Compound C182] | Firefly/Renilla (NR2F6 stable, clone F4) (Table 13): 1.2; Firefly, NR2F6 stable (clone F4)/pGL4 (Table 13): 8.2; Firefly, cmpd/DMSO repeat 1 (Table 13): 16.2; Firefly, cmpd/DMSO repeat 2 (Table 13): 17.3 |
| 1.2 | 1.2 | O=c1oc2ccc(Br)cc2cc1S(=O)(=O)c1cccc(F)c1 [Compound C183] |  |
| 1.1 | 1.4 | COc1cccc(S(=O)(=O)c2cc3cc(Cl)ccc3oc2=O)c1 [Compound C184] |  |
| 2.6 | 2.4 | COc1cccc(S(=O)(=O)c2cc3cc(Br)ccc3oc2=O)c1 [Compound C185] |  |
